Measurements: patent US20240084353A1, “PROCESS TO PRODUCE MONO-RHAMNOLIPIDS” (Conopco, Inc., d/b/a UNILEVER, priority 2021, published 2024)

System: α-L-rhamnosidase from A. terreus
Experiment: Influence of rhamnose excess on rhamnosidase activity (product inhibition)
Assay type: biochemical, Aspergillus terreus
Conditions: pNPR substrate, rhamnose solutions 0.6-3 mM added 1:1:1, pH 6.5, 40° C., 30 minutes
Method: The activity is expressed as the changes in time of the relative absorbance at 405 nm. The absorbance was measured every 30 sec. Substrate was used at 100 μM. The analysis was performed only for α-l-rhamnosidase from A. terreus. The influence of rhamnose excess on enzyme activity was investigated using the same colorimetric method as described above (See FIG. 1). The pNPR substrate was first dissolved in DMSO, with concentration adjusted to 300 μM in 100 mM sodium phosphate buffer pH 6.5. Enzymes were diluted to concentration of 30 μg/mL in 100 mM sodium phosphate buffer pH 6.5. Following sequence of rhamnose concentrations were prepared in 100 mM sodium phosphate buffer pH 6.5: 0.6 mM, 1.2 mM, 1.8 mM, 2.4 mM, 3 mM. 240 μL of the total reaction mixture was prepared by adding the substrate solution, the enzyme solution and the rhamnose solution in 1:1:1 ratio. The activity assay was performed on 96-well Microtiter UV plate by Thermo Scientific (Waltham, MA USA). All reactions were done at pH 6.5 and in temperature 40° C. The changes in absorbance were monitored at 405 nm for 30 minutes in Microplate reader Varioskan® Flash.

substrate conversion rate with increasing amount of rhamnose added: decreased
Compound: C[C@H](O)[C@H](O)[C@@H](O)[C@@H](O)C=O [rhamnose]
